Assay results taken from patent US20240325398A1, “COMBINATION THERAPIES” (Infinity Pharmaceuticals, Inc., priority 2014, published 2024).

Assays:
DOHH-2 = test: Combination study, ATPLite 72 h, dose matrix (Synergy Score, CI50)
DOHH2 = test: Compound 1 with dexamethasone, CellTiter-Glo viability 72 h, combination index; format: cell-based; settings: DOHH2
Procedure: The effects of Compound 1 with dexamethasone were examined in a panel of cell lines. Cells were cultured and assayed as follows. Compound 1 was serially diluted with cell culture medium and various DMSO concentrations. The top concentration of Compound 1 exposed to cells was 3 uM for cell lines other than WSU-NHL and DOHH2. For WSU-NHL and DOHH2 cell lines, the top concentration of Compound 1 exposed to the cells was 0.3 uM. Dexamethasone was serially diluted in culture media and phosphate buffered saline (PBS). The top concentration of dexamethasone used on cells was 3 uM. Cells were at least 73% viable and were counted and diluted for plating at a density of about 92,000 cell/mL, 130 uL cells per well in 96 well plates for SUDHL6, Karpas 422, SUDHL4, WSU-NHL, RL, and DOHH2 cell lines. The SUDHL10 cell line was plated at a density of about 46,000 cells/mL, 130 uL cells per well in 96 well plates.
Various concentrations of Compound 1 and various combinations of dexamethasone were added to various wells of cells. Single agents (Compound 1 or dexamethasone alone) were also added to some wells of cells. Cells were incubated with compounds for 72 hours. To assay for effects of the compounds on cell viability, a CellTiter-Glo® luminescent cell viability assay (commercially available) was used. To each plate of cells, 100 uL CellTiter-Glo reagent was added, incubated, and luminescence quantified using a […].
The results for cell line DOHH2 are depicted in FIG. 11 and Table 11. […] Table 11 depicts combination index (CI) values for different combinations of dexamethasone/Compound 1 concentrations.

SU-DHL-4-epst = test: Combination study, ATPLite 72 h, dose matrix (Synergy Score, CI50)
Procedure: Cells are thawed from a liquid nitrogen preserved state. Once cells have been expanded and divide at their expected doubling times, screening begins. Cells are seeded in growth media in either black 1536-well or 384-well tissue culture treated plates. Cells are then equilibrated in assay plates via centrifugation and placed in incubators attached to the Dosing Modules at 37° C. for 24 hours before treatment. […] These Tzero (To) plates are read using ultra-sensitive luminescence on Envision plate readers (Perkin Elmer). Treated assay plates are incubated with compound for 72 hours. After 72 hours, plates are developed for endpoint analysis using ATPLite. All data points are collected via automated processes, quality controlled and analyzed using Zalicus software.
The measure of effect in the experiment can be the inhibition of cellular response relative to the untreated level (vehicle alone). […] The inhibition ranges from 0% at the untreated level to 100% when T=0. Inhibition levels are negative for agents that actually increase levels.
Growth Inhibition (GI) is used as a measure of cell viability. […] A GI reading of 100% represents complete growth inhibition—T72 compound-treated and T0 vehicle signals are matched. […] A GI reading of 200% represents complete death of all cells in the culture well. Compounds reaching an activity plateau of GI 200% are considered cytotoxic. GI is calculated by applying the following test and equation:
Combination analysis data were collected in a 6×6 dose matrix. Synergy is calculated by comparing a combination's response to those of its single compound, against the drug-with-itself dose-additive reference model. Deviations from dose additivity may be assessed visually on an isobologram or numerically with a Combination Index (CI). […] Additive effect is CI=1.0. […] Antagonistic effect is CI>1.0.
To measure combination effects in excess of Loewe additivity, a scalar measure to characterize the strength of synergistic interaction termed the Synergy Score is devised. The Synergy Score is calculated as:
The fractional inhibition for each component agent and combination point in the matrix is calculated relative to the median of all vehicle-treated control wells. The Synergy Score equation integrates the experimentally-observed activity volume at each point in the matrix in excess of a model surface numerically derived from the activity of the component agents using the Loewe model for additivity. Additional terms in the Synergy Score equation (above) are used to normalize for various dilution factors used for individual agents and to allow for comparison of synergy scores across an entire experiment. The inclusion of positive inhibition gating or an Idata multiplier removes noise near the zero effect level, and biases results for synergistic interactions at that occur at high activity levels.
Loewe Volume (Loewe Vol) is used to assess the overall magnitude of the combination interaction in excess of the Loewe additivity model. Loewe Volume is particularly useful when distinguishing synergistic increases in a phenotypic activity (positive Loewe Volume) versus synergistic antagonisms (negative Loewe Volume). […] This model defines additivity as a non-synergistic combination interaction where the combination dose matrix surface should be indistinguishable from either drug crossed with itself. The calculation for Loewe additivity is:

OCI-Ly7 = test: as above

## C[C@H](Nc1ncnc2[nH]cnc12)c1cc2cccc(Cl)c2c(=O)n1-c1ccccc1 [Compound 1, (S)-3-(1-((9H-purin-6-yl)amino)ethyl)-8-chloro-2-phenylisoquinolin-1(2H)-one]
DOHH-2; combination with Dexamethasone
  CI50 growth inhibition: S (S=0.01 to <0.5)
  CI50 inhibition: S (S=0.01 to <0.5)
  Synergy Score growth inhibition: A3 (A3=>3)
  Synergy Score inhibition: A3 (A3=>3)
DOHH-2; combination with LEE011
  CI50 growth inhibition: T (T=0.5 to <0.7)
  CI50 inhibition: U (U=0.7 to <1)
  Synergy Score growth inhibition: A3 (A3=>3)
  Synergy Score inhibition: A2 (A2=1 to <3)
DOHH-2; combination with PCI-32765
  CI50 growth inhibition: S (S=0.01 to <0.5)
  CI50 inhibition: S (S=0.01 to <0.5)
  Synergy Score growth inhibition: A3 (A3=>3)
  Synergy Score inhibition: A3 (A3=>3)
DOHH-2; combination with PD-0332991
  CI50 growth inhibition: U (U=0.7 to <1)
  CI50 inhibition: U (U=0.7 to <1)
  Synergy Score growth inhibition: A3 (A3=>3)
  Synergy Score inhibition: A2 (A2=1 to <3)
DOHH2; Compound 1 0.137174 nM + Dexamethasone 1.371742 nM
  combination index (CI): E (E = >1)
DOHH2; Compound 1 0.137174 nM + Dexamethasone 4.115226 nM
  combination index (CI): E (E = >1)
DOHH2; Compound 1 0.137174 nM + Dexamethasone 12.34568 nM
  combination index (CI): E (E = >1)
DOHH2; Compound 1 0.137174 nM + Dexamethasone 37.03704 nM
  combination index (CI): E (E = >1)
DOHH2; Compound 1 0.137174 nM + Dexamethasone 111.1111 nM
  combination index (CI): C (C = 0.5 to <0.7)
DOHH2; Compound 1 0.137174 nM + Dexamethasone 333.3333 nM
  combination index (CI): A (A = 0.0001 to <0.3)
DOHH2; Compound 1 0.137174 nM + Dexamethasone 1000 nM
  combination index (CI): A (A = 0.0001 to <0.3)
DOHH2; Compound 1 0.137174 nM + Dexamethasone 3000 nM
  combination index (CI): A (A = 0.0001 to <0.3)
DOHH2; Compound 1 0.411523 nM + Dexamethasone 1.371742 nM
  combination index (CI): E (E = >1)
DOHH2; Compound 1 0.411523 nM + Dexamethasone 4.115226 nM
  combination index (CI): E (E = >1)
DOHH2; Compound 1 0.411523 nM + Dexamethasone 12.34568 nM
  combination index (CI): E (E = >1)
DOHH2; Compound 1 0.411523 nM + Dexamethasone 37.03704 nM
  combination index (CI): E (E = >1)
DOHH2; Compound 1 0.411523 nM + Dexamethasone 111.1111 nM
  combination index (CI): C (C = 0.5 to <0.7)
DOHH2; Compound 1 0.411523 nM + Dexamethasone 333.3333 nM
  combination index (CI): B (B = 0.3 to <0.5)
DOHH2; Compound 1 0.411523 nM + Dexamethasone 1000 nM
  combination index (CI): A (A = 0.0001 to <0.3)
DOHH2; Compound 1 0.411523 nM + Dexamethasone 3000 nM
  combination index (CI): A (A = 0.0001 to <0.3)
DOHH2; Compound 1 1.234568 nM + Dexamethasone 1.371742 nM
  combination index (CI): E (E = >1)
DOHH2; Compound 1 1.234568 nM + Dexamethasone 4.115226 nM
  combination index (CI): E (E = >1)
DOHH2; Compound 1 1.234568 nM + Dexamethasone 12.34568 nM
  combination index (CI): E (E = >1)
DOHH2; Compound 1 1.234568 nM + Dexamethasone 37.03704 nM
  combination index (CI): E (E = >1)
DOHH2; Compound 1 1.234568 nM + Dexamethasone 111.1111 nM
  combination index (CI): B (B = 0.3 to <0.5)
DOHH2; Compound 1 1.234568 nM + Dexamethasone 333.3333 nM
  combination index (CI): A (A = 0.0001 to <0.3)
DOHH2; Compound 1 1.234568 nM + Dexamethasone 1000 nM
  combination index (CI): A (A = 0.0001 to <0.3)
DOHH2; Compound 1 1.234568 nM + Dexamethasone 3000 nM
  combination index (CI): A (A = 0.0001 to <0.3)
DOHH2; Compound 1 3.703704 nM + Dexamethasone 1.371742 nM
  combination index (CI): B (B = 0.3 to <0.5)
DOHH2; Compound 1 3.703704 nM + Dexamethasone 4.115226 nM
  combination index (CI): E (E = >1)
DOHH2; Compound 1 3.703704 nM + Dexamethasone 12.34568 nM
  combination index (CI): E (E = >1)
DOHH2; Compound 1 3.703704 nM + Dexamethasone 37.03704 nM
  combination index (CI): D (D = 0.7 to <1)
DOHH2; Compound 1 3.703704 nM + Dexamethasone 111.1111 nM
  combination index (CI): A (A = 0.0001 to <0.3)
DOHH2; Compound 1 3.703704 nM + Dexamethasone 333.3333 nM
  combination index (CI): A (A = 0.0001 to <0.3)
DOHH2; Compound 1 3.703704 nM + Dexamethasone 1000 nM
  combination index (CI): A (A = 0.0001 to <0.3)
DOHH2; Compound 1 3.703704 nM + Dexamethasone 3000 nM
  combination index (CI): A (A = 0.0001 to <0.3)
DOHH2; Compound 1 11.11111 nM + Dexamethasone 1.371742 nM
  combination index (CI): B (B = 0.3 to <0.5)
DOHH2; Compound 1 11.11111 nM + Dexamethasone 4.115226 nM
  combination index (CI): E (E = >1)
DOHH2; Compound 1 11.11111 nM + Dexamethasone 12.34568 nM
  combination index (CI): E (E = >1)
DOHH2; Compound 1 11.11111 nM + Dexamethasone 37.03704 nM
  combination index (CI): C (C = 0.5 to <0.7)
DOHH2; Compound 1 11.11111 nM + Dexamethasone 111.1111 nM
  combination index (CI): A (A = 0.0001 to <0.3)
DOHH2; Compound 1 11.11111 nM + Dexamethasone 333.3333 nM
  combination index (CI): A (A = 0.0001 to <0.3)
DOHH2; Compound 1 11.11111 nM + Dexamethasone 1000 nM
  combination index (CI): A (A = 0.0001 to <0.3)
DOHH2; Compound 1 11.11111 nM + Dexamethasone 3000 nM
  combination index (CI): A (A = 0.0001 to <0.3)
DOHH2; Compound 1 33.33333 nM + Dexamethasone 1.371742 nM
  combination index (CI): B (B = 0.3 to <0.5)
DOHH2; Compound 1 33.33333 nM + Dexamethasone 4.115226 nM
  combination index (CI): B (B = 0.3 to <0.5)
DOHH2; Compound 1 33.33333 nM + Dexamethasone 12.34568 nM
  combination index (CI): D (D = 0.7 to <1)
DOHH2; Compound 1 33.33333 nM + Dexamethasone 37.03704 nM
  combination index (CI): A (A = 0.0001 to <0.3)
DOHH2; Compound 1 33.33333 nM + Dexamethasone 111.1111 nM
  combination index (CI): A (A = 0.0001 to <0.3)
DOHH2; Compound 1 33.33333 nM + Dexamethasone 333.3333 nM
  combination index (CI): A (A = 0.0001 to <0.3)
DOHH2; Compound 1 33.33333 nM + Dexamethasone 1000 nM
  combination index (CI): A (A = 0.0001 to <0.3)
DOHH2; Compound 1 33.33333 nM + Dexamethasone 3000 nM
  combination index (CI): A (A = 0.0001 to <0.3)
DOHH2; Compound 1 100 nM + Dexamethasone 1.371742 nM
  combination index (CI): B (B = 0.3 to <0.5)
DOHH2; Compound 1 100 nM + Dexamethasone 4.115226 nM
  combination index (CI): A (A = 0.0001 to <0.3)
DOHH2; Compound 1 100 nM + Dexamethasone 12.34568 nM
  combination index (CI): C (C = 0.5 to <0.7)
DOHH2; Compound 1 100 nM + Dexamethasone 37.03704 nM
  combination index (CI): A (A = 0.0001 to <0.3)
DOHH2; Compound 1 100 nM + Dexamethasone 111.1111 nM
  combination index (CI): A (A = 0.0001 to <0.3)
DOHH2; Compound 1 100 nM + Dexamethasone 333.3333 nM
  combination index (CI): A (A = 0.0001 to <0.3)
DOHH2; Compound 1 100 nM + Dexamethasone 1000 nM
  combination index (CI): A (A = 0.0001 to <0.3)
DOHH2; Compound 1 100 nM + Dexamethasone 3000 nM
  combination index (CI): A (A = 0.0001 to <0.3)
DOHH2; Compound 1 300 nM + Dexamethasone 1.371742 nM
  combination index (CI): B (B = 0.3 to <0.5)
DOHH2; Compound 1 300 nM + Dexamethasone 4.115226 nM
  combination index (CI): B (B = 0.3 to <0.5)
DOHH2; Compound 1 300 nM + Dexamethasone 12.34568 nM
  combination index (CI): A (A = 0.0001 to <0.3)
DOHH2; Compound 1 300 nM + Dexamethasone 37.03704 nM
  combination index (CI): A (A = 0.0001 to <0.3)
DOHH2; Compound 1 300 nM + Dexamethasone 111.1111 nM
  combination index (CI): A (A = 0.0001 to <0.3)
DOHH2; Compound 1 300 nM + Dexamethasone 333.3333 nM
  combination index (CI): A (A = 0.0001 to <0.3)
DOHH2; Compound 1 300 nM + Dexamethasone 1000 nM
  combination index (CI): A (A = 0.0001 to <0.3)
DOHH2; Compound 1 300 nM + Dexamethasone 3000 nM
  combination index (CI): A (A = 0.0001 to <0.3)
SU-DHL-4-epst; combination with Dexamethasone
  CI50 growth inhibition: S (S=0.01 to <0.5)
  CI50 inhibition: S (S=0.01 to <0.5)
  Synergy Score growth inhibition: A3 (A3=>3)
  Synergy Score inhibition: A3 (A3=>3)
SU-DHL-4-epst; combination with LEE011
  CI50 growth inhibition: S (S=0.01 to <0.5)
  CI50 inhibition: S (S=0.01 to <0.5)
  Synergy Score growth inhibition: A2 (A2=1 to <3)
  Synergy Score inhibition: A2 (A2=1 to <3)
SU-DHL-4-epst; combination with PCI-32765
  CI50 growth inhibition: S (S=0.01 to <0.5)
  CI50 inhibition: S (S=0.01 to <0.5)
  Synergy Score growth inhibition: A3 (A3=>3)
  Synergy Score inhibition: A3 (A3=>3)
SU-DHL-4-epst; combination with PD-0332991
  CI50 growth inhibition: S (S=0.01 to <0.5)
  CI50 inhibition: S (S=0.01 to <0.5)
  Synergy Score growth inhibition: A3 (A3=>3)
  Synergy Score inhibition: A2 (A2=1 to <3)
OCI-Ly7; combination with Dexamethasone
  CI50 growth inhibition: S (S=0.01 to <0.5)
  CI50 inhibition: S (S=0.01 to <0.5)
  Synergy Score growth inhibition: A3 (A3=>3)
  Synergy Score inhibition: A2 (A2=1 to <3)
OCI-Ly7; combination with LEE011
  CI50 growth inhibition: U (U=0.7 to <1)
  CI50 inhibition: W (W=≥1)
